Results taken from PMC4620497 (Scientific Reports, 2015).

Assays:
PAK4 [1] = biological target: T1, PAK4 (Homo sapiens, UniProt O96013); set-up: method as in earlier work; details: Table S1; cited from earlier work
T1 construct: DNA tag (qPCR read-out); purchased Ambit Biosciences (KINOMEscan service)

SIK2 = biological target: T2, SIK2 (Homo sapiens, UniProt Q9H0K1); experiment: KINOMEscan panel screen; type: binding; details: read-out: Percent Control(%)
T2 construct: purchased DiscoveRx KINOMEscan (Ambit Biosciences)

FLT3-D835Y = FLT3-D835Y (Homo sapiens, UniProt P36888, D835Y); experiment: KINOMEscan panel screen; type: binding; set-up: purchased DiscoveRx KINOMEscan (Ambit Biosciences); details: read-out: Percent Control(%)
PIK4CB = biological target: T3, PIK4CB (Homo sapiens, UniProt Q9UBF8); experiment: KINOMEscan panel screen; type: binding; details: read-out: Percent Control(%)
T3 construct: purchased DiscoveRx KINOMEscan (Ambit Biosciences)

INSR = biological target: T4, INSR (Homo sapiens, UniProt P06213); experiment: KINOMEscan panel screen; type: binding; details: read-out: Percent Control(%)
T4 construct: purchased DiscoveRx KINOMEscan (Ambit Biosciences)
T4 sequence (P06213 28-1382): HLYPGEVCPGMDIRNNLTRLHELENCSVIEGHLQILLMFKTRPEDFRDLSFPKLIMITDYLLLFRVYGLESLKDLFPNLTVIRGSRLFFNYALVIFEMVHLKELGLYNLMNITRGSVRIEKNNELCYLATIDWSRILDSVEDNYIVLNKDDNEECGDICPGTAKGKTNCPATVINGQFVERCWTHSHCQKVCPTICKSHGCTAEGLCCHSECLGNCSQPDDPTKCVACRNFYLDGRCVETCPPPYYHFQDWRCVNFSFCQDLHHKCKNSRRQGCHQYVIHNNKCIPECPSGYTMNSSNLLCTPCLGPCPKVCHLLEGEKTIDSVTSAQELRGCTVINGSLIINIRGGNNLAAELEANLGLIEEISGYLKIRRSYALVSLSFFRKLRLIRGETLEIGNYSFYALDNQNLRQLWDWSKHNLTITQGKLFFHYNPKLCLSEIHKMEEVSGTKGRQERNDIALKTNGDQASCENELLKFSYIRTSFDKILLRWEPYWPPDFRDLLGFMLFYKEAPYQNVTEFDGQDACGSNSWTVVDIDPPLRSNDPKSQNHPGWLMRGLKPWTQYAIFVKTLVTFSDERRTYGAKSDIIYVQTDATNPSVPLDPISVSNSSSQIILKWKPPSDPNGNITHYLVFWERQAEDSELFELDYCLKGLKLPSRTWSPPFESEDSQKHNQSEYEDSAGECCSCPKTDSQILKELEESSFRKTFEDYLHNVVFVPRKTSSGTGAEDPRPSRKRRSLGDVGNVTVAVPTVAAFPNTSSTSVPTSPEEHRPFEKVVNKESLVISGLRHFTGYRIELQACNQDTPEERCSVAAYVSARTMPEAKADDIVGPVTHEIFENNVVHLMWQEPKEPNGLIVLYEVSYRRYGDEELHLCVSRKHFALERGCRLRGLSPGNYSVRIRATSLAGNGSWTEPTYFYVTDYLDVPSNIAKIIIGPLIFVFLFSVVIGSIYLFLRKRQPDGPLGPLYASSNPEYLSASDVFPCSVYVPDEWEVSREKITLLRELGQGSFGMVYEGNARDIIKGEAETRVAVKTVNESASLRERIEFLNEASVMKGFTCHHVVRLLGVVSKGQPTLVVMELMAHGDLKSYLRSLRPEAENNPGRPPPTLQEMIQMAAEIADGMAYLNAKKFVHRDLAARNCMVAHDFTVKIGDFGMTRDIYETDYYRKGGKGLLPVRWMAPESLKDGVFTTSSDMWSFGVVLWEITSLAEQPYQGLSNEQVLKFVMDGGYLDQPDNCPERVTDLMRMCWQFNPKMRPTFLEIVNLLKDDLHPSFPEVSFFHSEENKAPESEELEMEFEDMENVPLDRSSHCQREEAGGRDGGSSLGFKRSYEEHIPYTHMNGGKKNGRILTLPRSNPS

MELK = biological target: T5, MELK (Homo sapiens, UniProt Q14680); experiment: KINOMEscan panel screen; type: binding; details: read-out: Percent Control(%)
T5 construct: purchased DiscoveRx KINOMEscan (Ambit Biosciences)

PAK4 [2] = biological target: T1, PAK4; experiment: KINOMEscan panel screen; type: binding; details: read-out: Percent Control(%)
LYN = biological target: T6, LYN (Homo sapiens, UniProt P07948); experiment: KINOMEscan panel screen; type: binding; details: read-out: Percent Control(%)
T6 construct: purchased DiscoveRx KINOMEscan (Ambit Biosciences)

PRKD3 = biological target: T7, PRKD3 (Homo sapiens, UniProt O94806); experiment: KINOMEscan panel screen; type: binding; details: read-out: Percent Control(%)
T7 construct: purchased DiscoveRx KINOMEscan (Ambit Biosciences)

RIPK2 = biological target: T8, RIPK2 (Homo sapiens, UniProt O43353); experiment: KINOMEscan panel screen; type: binding; details: read-out: Percent Control(%)
T8 construct: purchased DiscoveRx KINOMEscan (Ambit Biosciences)

IKK-beta = biological target: T9, IKK-beta (Homo sapiens, UniProt O14920); experiment: KINOMEscan panel screen; type: binding; details: read-out: Percent Control(%)
T9 construct: purchased DiscoveRx KINOMEscan (Ambit Biosciences)
T9 sequence (O14920 whole entry): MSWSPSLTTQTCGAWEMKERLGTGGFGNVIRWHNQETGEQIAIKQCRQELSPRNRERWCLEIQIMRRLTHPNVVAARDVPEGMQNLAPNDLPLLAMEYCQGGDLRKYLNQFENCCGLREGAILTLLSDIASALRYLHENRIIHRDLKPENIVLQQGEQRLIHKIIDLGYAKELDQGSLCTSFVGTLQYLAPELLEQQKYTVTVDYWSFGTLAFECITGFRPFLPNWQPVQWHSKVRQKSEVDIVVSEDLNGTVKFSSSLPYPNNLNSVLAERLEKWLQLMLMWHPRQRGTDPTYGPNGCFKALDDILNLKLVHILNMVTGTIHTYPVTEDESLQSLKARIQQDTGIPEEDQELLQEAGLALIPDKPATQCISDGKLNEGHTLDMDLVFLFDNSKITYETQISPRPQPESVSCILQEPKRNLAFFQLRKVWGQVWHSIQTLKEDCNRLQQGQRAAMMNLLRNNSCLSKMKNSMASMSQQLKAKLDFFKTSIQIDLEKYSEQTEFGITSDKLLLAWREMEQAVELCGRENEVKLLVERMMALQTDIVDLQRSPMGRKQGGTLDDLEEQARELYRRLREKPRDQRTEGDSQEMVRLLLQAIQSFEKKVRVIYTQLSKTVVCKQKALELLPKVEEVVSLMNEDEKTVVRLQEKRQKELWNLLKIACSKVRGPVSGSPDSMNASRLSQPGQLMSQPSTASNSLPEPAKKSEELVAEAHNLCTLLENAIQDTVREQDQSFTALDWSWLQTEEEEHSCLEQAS

MST2 = biological target: T10, MST2 (Homo sapiens, UniProt Q13188); experiment: KINOMEscan panel screen; type: binding; details: read-out: Percent Control(%)
T10 construct: purchased DiscoveRx KINOMEscan (Ambit Biosciences)

PRKG1 = biological target: T11, PRKG1 (Homo sapiens, UniProt Q13976); experiment: KINOMEscan panel screen; type: binding; details: read-out: Percent Control(%)
T11 construct: purchased DiscoveRx KINOMEscan (Ambit Biosciences)

PRKD2 = biological target: T12, PRKD2 (Homo sapiens, UniProt Q9BZL6); experiment: KINOMEscan panel screen; type: binding; details: read-out: Percent Control(%)
T12 construct: purchased DiscoveRx KINOMEscan (Ambit Biosciences)

MAP4K3 = biological target: T13, MAP4K3 (Homo sapiens, UniProt Q8IVH8); experiment: KINOMEscan panel screen; type: binding; details: read-out: Percent Control(%)
T13 construct: purchased DiscoveRx KINOMEscan (Ambit Biosciences)

TLK1 = biological target: T14, TLK1 (Homo sapiens, UniProt Q9UKI8); experiment: KINOMEscan panel screen; type: binding; details: read-out: Percent Control(%)
T14 construct: purchased DiscoveRx KINOMEscan (Ambit Biosciences)

WNK3 = biological target: T15, WNK3 (Homo sapiens, UniProt Q9BYP7); experiment: KINOMEscan panel screen; type: binding; details: read-out: Percent Control(%)
T15 construct: purchased DiscoveRx KINOMEscan (Ambit Biosciences)

[3] = biological target: T16, JAK2(JH1domain-catalytic) (Homo sapiens, UniProt O60674); experiment: KINOMEscan panel screen; type: binding; details: read-out: Percent Control(%)
T16 construct: JAK2(JH1domain-catalytic); purchased DiscoveRx KINOMEscan (Ambit Biosciences)

ULK2 = biological target: T17, ULK2 (Homo sapiens, UniProt Q8IYT8); experiment: KINOMEscan panel screen; type: binding; details: read-out: Percent Control(%)
T17 construct: purchased DiscoveRx KINOMEscan (Ambit Biosciences)

MRCKA = biological target: T18, MRCKA (Homo sapiens, UniProt Q5VT25); experiment: KINOMEscan panel screen; type: binding; details: read-out: Percent Control(%)
T18 construct: purchased DiscoveRx KINOMEscan (Ambit Biosciences)

ERBB2 = ERBB2 (Homo sapiens, UniProt P04626); experiment: KINOMEscan kinase binding assay (Kd)
MET = biological target: T19, MET (Homo sapiens, UniProt P08581); experiment: KINOMEscan panel screen; type: binding; details: read-out: Percent Control(%)
T19 construct: purchased DiscoveRx KINOMEscan (Ambit Biosciences)

BIKE = biological target: T20, BIKE (Homo sapiens, UniProt Q9NSY1); experiment: KINOMEscan panel screen; type: binding; details: read-out: Percent Control(%)
T20 construct: purchased DiscoveRx KINOMEscan (Ambit Biosciences)

ROCK1 = ROCK1 (Homo sapiens, UniProt Q13464); experiment: KINOMEscan kinase binding assay (Kd)
PCTK1 = biological target: T21, PCTK1 (Homo sapiens, UniProt Q00536); experiment: KINOMEscan panel screen; type: binding; details: read-out: Percent Control(%)
T21 construct: purchased DiscoveRx KINOMEscan (Ambit Biosciences)

LRRK2 = biological target: T22, LRRK2 (Homo sapiens, UniProt Q5S007); experiment: KINOMEscan panel screen; type: binding; details: read-out: Percent Control(%)
T22 construct: purchased DiscoveRx KINOMEscan (Ambit Biosciences)

[4] = biological target: T23, ABL1(H396P)-phosphorylated (Homo sapiens, UniProt P00519, H396P); experiment: KINOMEscan panel screen; type: binding; details: read-out: Percent Control(%)
T23 construct: purchased DiscoveRx KINOMEscan (Ambit Biosciences)

PFTK1 = biological target: T24, PFTK1 (Homo sapiens, UniProt O94921); experiment: KINOMEscan panel screen; type: binding; details: read-out: Percent Control(%)
T24 construct: purchased DiscoveRx KINOMEscan (Ambit Biosciences)

CLK1 = biological target: T25, CLK1 (Homo sapiens, UniProt P49759); experiment: KINOMEscan panel screen; type: binding; details: read-out: Percent Control(%)
T25 construct: purchased DiscoveRx KINOMEscan (Ambit Biosciences)

LATS1 = biological target: T26, LATS1 (Homo sapiens, UniProt O95835); experiment: KINOMEscan panel screen; type: binding; details: read-out: Percent Control(%)
T26 construct: purchased DiscoveRx KINOMEscan (Ambit Biosciences)
T26 sequence (O95835 whole entry): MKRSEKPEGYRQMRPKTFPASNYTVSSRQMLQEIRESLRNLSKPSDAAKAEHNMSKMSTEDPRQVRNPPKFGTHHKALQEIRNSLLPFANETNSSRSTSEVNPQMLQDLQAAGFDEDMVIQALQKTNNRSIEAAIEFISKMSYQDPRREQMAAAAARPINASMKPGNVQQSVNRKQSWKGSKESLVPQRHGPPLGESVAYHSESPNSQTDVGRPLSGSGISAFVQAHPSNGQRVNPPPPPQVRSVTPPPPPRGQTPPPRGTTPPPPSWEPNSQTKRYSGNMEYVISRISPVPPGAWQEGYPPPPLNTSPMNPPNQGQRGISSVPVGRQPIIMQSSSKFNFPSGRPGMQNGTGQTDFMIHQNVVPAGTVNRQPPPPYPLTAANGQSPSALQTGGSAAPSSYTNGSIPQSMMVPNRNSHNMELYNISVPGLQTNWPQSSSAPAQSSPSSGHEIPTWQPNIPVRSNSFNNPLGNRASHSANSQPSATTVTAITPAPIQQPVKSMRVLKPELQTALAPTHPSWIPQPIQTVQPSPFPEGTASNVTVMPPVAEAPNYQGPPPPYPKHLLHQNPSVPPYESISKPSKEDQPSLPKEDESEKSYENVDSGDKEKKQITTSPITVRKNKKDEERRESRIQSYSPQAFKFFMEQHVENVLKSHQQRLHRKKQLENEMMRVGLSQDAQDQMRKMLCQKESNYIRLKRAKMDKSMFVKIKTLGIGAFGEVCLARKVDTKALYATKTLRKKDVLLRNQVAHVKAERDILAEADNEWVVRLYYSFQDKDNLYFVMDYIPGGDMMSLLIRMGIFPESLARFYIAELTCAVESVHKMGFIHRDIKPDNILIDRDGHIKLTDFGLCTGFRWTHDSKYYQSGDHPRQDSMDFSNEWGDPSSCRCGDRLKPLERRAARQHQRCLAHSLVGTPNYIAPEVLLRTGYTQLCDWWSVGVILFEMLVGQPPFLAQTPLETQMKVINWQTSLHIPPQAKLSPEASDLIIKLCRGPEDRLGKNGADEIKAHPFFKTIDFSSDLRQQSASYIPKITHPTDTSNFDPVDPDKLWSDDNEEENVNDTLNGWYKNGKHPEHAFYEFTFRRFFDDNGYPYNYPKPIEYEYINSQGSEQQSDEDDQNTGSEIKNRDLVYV

ITK = biological target: T27, ITK (Homo sapiens, UniProt Q08881); experiment: KINOMEscan panel screen; type: binding; details: read-out: Percent Control(%)
T27 construct: purchased DiscoveRx KINOMEscan (Ambit Biosciences)
T27 sequence (Q08881 whole entry): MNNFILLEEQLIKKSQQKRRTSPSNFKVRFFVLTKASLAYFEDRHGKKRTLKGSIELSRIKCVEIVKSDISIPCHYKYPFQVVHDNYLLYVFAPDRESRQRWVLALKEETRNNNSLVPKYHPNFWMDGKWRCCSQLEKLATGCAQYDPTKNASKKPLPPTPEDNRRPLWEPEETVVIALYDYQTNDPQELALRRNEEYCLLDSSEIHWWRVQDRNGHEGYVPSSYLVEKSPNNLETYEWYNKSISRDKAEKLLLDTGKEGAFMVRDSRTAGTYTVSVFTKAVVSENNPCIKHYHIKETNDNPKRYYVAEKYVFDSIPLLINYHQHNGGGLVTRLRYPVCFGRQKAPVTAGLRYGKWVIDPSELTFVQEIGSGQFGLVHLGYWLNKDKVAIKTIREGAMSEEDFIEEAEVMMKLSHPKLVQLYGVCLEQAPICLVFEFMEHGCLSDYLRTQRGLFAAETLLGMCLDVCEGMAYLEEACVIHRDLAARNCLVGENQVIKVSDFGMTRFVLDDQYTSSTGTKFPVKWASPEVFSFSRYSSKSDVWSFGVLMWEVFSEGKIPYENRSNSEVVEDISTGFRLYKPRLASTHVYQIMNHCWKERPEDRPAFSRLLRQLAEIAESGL

CDK3 = biological target: T28, CDK3 (Homo sapiens, UniProt Q00526); experiment: KINOMEscan panel screen; type: binding; details: read-out: Percent Control(%)
T28 construct: purchased DiscoveRx KINOMEscan (Ambit Biosciences)

CSK = biological target: T29, CSK (Homo sapiens, UniProt P41240); experiment: KINOMEscan panel screen; type: binding; details: read-out: Percent Control(%)
T29 construct: purchased DiscoveRx KINOMEscan (Ambit Biosciences)
T29 sequence (P41240 whole entry): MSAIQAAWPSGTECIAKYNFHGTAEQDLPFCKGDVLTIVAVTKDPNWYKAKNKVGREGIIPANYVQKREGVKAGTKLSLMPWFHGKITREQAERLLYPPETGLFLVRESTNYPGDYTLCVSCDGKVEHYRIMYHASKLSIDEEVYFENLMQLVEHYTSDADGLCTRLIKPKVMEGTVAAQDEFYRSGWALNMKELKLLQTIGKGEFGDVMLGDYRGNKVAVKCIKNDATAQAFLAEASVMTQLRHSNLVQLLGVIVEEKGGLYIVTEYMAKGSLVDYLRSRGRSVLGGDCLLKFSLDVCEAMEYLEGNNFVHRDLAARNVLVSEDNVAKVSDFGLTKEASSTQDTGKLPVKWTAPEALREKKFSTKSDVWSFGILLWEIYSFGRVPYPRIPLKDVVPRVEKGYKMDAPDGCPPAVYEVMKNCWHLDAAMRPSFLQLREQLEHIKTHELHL

KIT(L576P) = biological target: T30, KIT(L576P) (Homo sapiens, UniProt P10721, L576P); experiment: KINOMEscan panel screen; type: binding; details: read-out: Percent Control(%)
T30 construct: purchased DiscoveRx KINOMEscan (Ambit Biosciences)

BTK = BTK (Homo sapiens, UniProt Q06187); experiment: KINOMEscan kinase binding assay (Kd)
YANK3 = biological target: T31, YANK3 (Homo sapiens, UniProt Q86UX6); experiment: KINOMEscan panel screen; type: binding; details: read-out: Percent Control(%)
T31 construct: purchased DiscoveRx KINOMEscan (Ambit Biosciences)

SIK = biological target: T32, SIK (Homo sapiens, UniProt P57059); experiment: KINOMEscan panel screen; type: binding; details: read-out: Percent Control(%)
T32 construct: purchased DiscoveRx KINOMEscan (Ambit Biosciences)

Ramos = experiment: MTT cell viability assay; details: Homo sapiens, 72 h
MAP4K4 = biological target: T33, MAP4K4 (Homo sapiens, UniProt O95819); experiment: KINOMEscan panel screen; type: binding; details: read-out: Percent Control(%)
T33 construct: purchased DiscoveRx KINOMEscan (Ambit Biosciences)

WM2664 = experiment: MTT cell viability assay; details: Homo sapiens, WM 266-4, 72 h
[5] = biological target: T34, EGFR(L747-S752del, P753S) (Homo sapiens, UniProt P00533, DEL747-752/P753S); experiment: KINOMEscan panel screen; type: binding; details: read-out: Percent Control(%)
T34 construct: purchased DiscoveRx KINOMEscan (Ambit Biosciences)

NLK = biological target: T35, NLK (Homo sapiens, UniProt Q9UBE8); experiment: KINOMEscan panel screen; type: binding; details: read-out: Percent Control(%)
T35 construct: purchased DiscoveRx KINOMEscan (Ambit Biosciences)

T1 sequence (O96013 whole entry): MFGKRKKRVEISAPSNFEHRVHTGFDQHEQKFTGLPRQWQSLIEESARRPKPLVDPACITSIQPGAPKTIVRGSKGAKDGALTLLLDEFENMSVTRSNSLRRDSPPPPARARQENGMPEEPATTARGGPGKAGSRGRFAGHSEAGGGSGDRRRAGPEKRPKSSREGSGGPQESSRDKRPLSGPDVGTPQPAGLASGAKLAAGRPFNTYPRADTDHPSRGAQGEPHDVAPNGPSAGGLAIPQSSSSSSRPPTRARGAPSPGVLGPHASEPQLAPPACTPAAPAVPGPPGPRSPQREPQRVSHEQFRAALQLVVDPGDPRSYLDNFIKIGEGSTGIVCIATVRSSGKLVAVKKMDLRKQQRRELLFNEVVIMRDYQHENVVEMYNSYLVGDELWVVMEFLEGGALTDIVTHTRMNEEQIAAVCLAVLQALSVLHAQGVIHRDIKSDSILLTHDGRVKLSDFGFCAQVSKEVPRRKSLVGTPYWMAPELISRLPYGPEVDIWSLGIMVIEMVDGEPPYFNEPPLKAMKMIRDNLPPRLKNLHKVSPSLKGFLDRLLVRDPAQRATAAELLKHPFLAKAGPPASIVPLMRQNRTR

O=C(Nc1ccc(Oc2ncnc3[nH]ncc23)cc1)Nc1ccc(Cl)c(C(F)(F)F)c1 [Compound 1, 1-(4-(1H-pyrazolo[3,4-d]pyrimidin-4-yloxy)phenyl)-3-(4-chloro-3-(trifluoromethyl)phenyl)urea]
IC50 (PAK4 [1]): > 10 µM

CC(C)(C)c1cc(NC(=O)Nc2ccc(Oc3ncnc4[nH]ncc34)c(F)c2)no1 [SKLB-677, 1-(4-(1H-pyrazolo[3,4-d]pyrimidin-4-yloxy)-3-fluorophenyl)-3-(5-tert-butylisoxazol-3-yl)urea]
remaining binding at 10 µM (SIK2): 69% | remaining binding at 10 µM (FLT3-D835Y): 3.2% | remaining binding at 10 µM (PIK4CB): 52% | remaining binding at 10 µM (INSR): 87% | remaining binding at 10 µM (MELK): 56% | remaining binding at 10 µM (PAK4 [2]): 100% | remaining binding at 10 µM (LYN): 2% | remaining binding at 10 µM (PRKD3): 100% | remaining binding at 10 µM (RIPK2): 0.75% | remaining binding at 10 µM (IKK-beta): 64% | remaining binding at 10 µM (MST2): 87% | remaining binding at 10 µM (PRKG1): 86% | remaining binding at 10 µM (PRKD2): 28% | remaining binding at 10 µM (MAP4K3): 3.2% | remaining binding at 10 µM (TLK1): 75% | remaining binding at 10 µM (WNK3): 100% | remaining binding at 10 µM [3]: 31% | remaining binding at 10 µM (ULK2): 97% | remaining binding at 10 µM (MRCKA): 100% | Kd (ERBB2): > 10 µM | remaining binding at 10 µM (MET): 0.05% | remaining binding at 10 µM (BIKE): 89% | Kd (ROCK1): > 10 µM | remaining binding at 10 µM (PCTK1): 0.2% | remaining binding at 10 µM (LRRK2): 52% | remaining binding at 10 µM [4]: 11% | remaining binding at 10 µM (PFTK1): 0.05% | remaining binding at 10 µM (CLK1): 5.8% | remaining binding at 10 µM (LATS1): 47% | remaining binding at 10 µM (ITK): 36% | remaining binding at 10 µM (CDK3): 0.2% | remaining binding at 10 µM (CSK): 76% | remaining binding at 10 µM (KIT(L576P)): 0% | Kd (BTK): > 10 µM | remaining binding at 10 µM (YANK3): 97% | remaining binding at 10 µM (SIK): 97% | IC50 (Ramos): 8.4 µM | remaining binding at 10 µM (MAP4K4): 0% | IC50 (WM2664): > 10 µM | remaining binding at 10 µM [5]: 38% | remaining binding at 10 µM (NLK): 1.2%
